Measurements published in patent publication US20240366540A1, “MITOFUSIN INHIBITORS AND USES THEREOF” (Albert Einstein College of Medicine, priority 2021, published 2024).

Columns and labels:
BXPC3 cells = experiment: Cell viability, pancreatic cancer cells; assay type: cell-based; details: BXPC3, 72 hr, Cell titer Glo
Procedure: (§1) Cell titer Glo was used to measure viability. Cells were treated with MFI8 for 72 hr (n=3, mean±SD).
(§2) Cell viability assay. Cells (5×10^3 cells/well) were seeded in a 96-well white plate and treated with serial dilutions of MASM7 or MFI8. Cell viability was assayed after 72 hrs by addition of CellTiter-Glo reagent according to the manufacturer's protocol (Promega). Luminescence was measured using a F200 PRO microplate reader (TECAN). Viability assays were performed in at least triplicate and the data normalized to vehicle-treated control wells. Dilutions of MASM7 or MFI8 were performed using a TECAN D300e Digital Dispenser from 10 mM stocks.

U2OS cells [1] = experiment: Cell death with BV6 in U2OS cells; assay type: cell-based
Procedure: (§3) Cell death assay. Cells (2×10^5 cells/well) were seeded in a 6-well plate and treated with the indicated drugs for 6 hours. Cells were dissociated using Accutase (Thermo Fisher; Cat. #00-4555-56) in order to avoid accidental exposure of phosphatidylserine on the outer plasma membrane. Cell death was evaluated with Dead Cell Apoptosis Kit with Annexin V Alexa Fluor™ 488 & Propidium Iodide (Thermo Fisher; Cat. #V13241) according to manufacturer's protocol. Data was acquired by BD LSRII flow cytometer system using BD FACSDiva software. Data was analyzed by FlowJo (BD).

MEFs [2] = experiment: RNA-seq gene expression; assay type: cell-based, mouse
Text: RNA-seq. Sequencing results were demultiplexed and converted to FASTQ format using Illumina bcl2fastq software. The sequencing reads were adapter and quality trimmed with Trimmomatic and then aligned to the mouse genome (build mm10/GRCm38) using the splice-aware STAR aligner. The featureCounts program was utilized to generate counts for each gene based on how many aligned reads overlap its exons. These counts were then normalized and used to test for differential expression using negative binomial generalized linear models implemented by the DESeq2 R package.

[3] = test system: mitochondrial biogenesis markers; experiment: Mitochondrial biogenesis markers by q-PCR; assay type: cell-based
Procedure: Analysis of mitochondrial biogenesis-related genes by q-PCR. Total RNA was extracted by using RNeasy Mini Kit (Qiagen) followed by cDNA synthesis using the SuperScript IV VILO Master Mix (Thermo Scientific), both performed according to the manufacturer's protocol. q-PCR was performed using the following primers: For the q-PCR reaction, Power SYBR Green master mix (Thermo Scientific) was used according to the manufacturer's instructions. […] Rpl39 was used as housekeeping gene and 2^−ΔΔCT method was applied to determine the relative mRNAs expression.

Calu-6 cells [4] = experiment: Cell viability, lung cancer cells; assay type: cell-based; details: Calu-6, 72 hr, Cell titer Glo
Procedure: as §1, §2

H2405 cells = experiment: Cell viability, lung cancer cells; assay type: cell-based; details: H2405, 72 hr, Cell titer Glo
Procedure: as §1, §2

MEFs [5] = experiment: Mitochondrial depolarization assay (TMRE membrane potential); assay type: cell-based, mouse
Procedure: Mitochondrial depolarization assay (mtΔΨ). MEFs (10^4 cells/well) were seeded in a 96-well black plate and treated with MASM7 or MFI8 for 6 hrs. Following treatments, cells were stained with 250 nM TMRE (Sigma; Cat. 87917) for 20 min at 37° C. Subsequently, cells were washed with thrice with PBS. Fluorescence intensity was detected by a M100 microplate reader (TECAN, Ex: 540 nm/Em: 579 nm).

Calu-6 cells [6] = experiment: Cell death (Annexin V) in Calu-6 cells; assay type: cell-based; details: 20 μM, indicated timepoints
Procedure: Calu-6 cells were treated with MFI8 (20 μM). Cell death was monitored at the indicated timepoints using Annexin V as a readout. Data represent mean (n=3).
as §3

U2OS cells [7] = experiment: Caspase-3/7 activation assay in U2OS cells; assay type: cell-based
Procedure: Caspase-3/7 activation assay. Cells (5×10^3 cells/well) were seeded in a 96-well white plate and treated with MASM7, MFI8. Caspase 3/7 activation was measured after 6 hr by addition of the Caspase-Glo 3/7 reagent according to the manufacturer's protocol (Promega). Luminescence was detected by a F200 PRO microplate reader (TECAN). Caspase assays were performed in at least triplicate and the data normalized to vehicle-treated control wells. Dilutions of MASM7 or MFI8 were performed using a TECAN D300e Digital Dispenser from 10 mM stocks.

MFN1 and MFN2 = MFN1 and MFN2 gene expression and protein levels; assay type: cell-based
Procedure: Western blot. Western blots were performed from whole cell lysates (WCL) prepared in lysis buffer containing 50 mM Tris-HCl pH 7.5, 1% Triton X-100, 150 mM NaCl, 5 mM MgCl2, 1 mM EGTA and 10% glycerol in the presence of protease inhibitor cocktail (Roche).
Analysis of mitochondrial biogenesis-related genes by q-PCR. Total RNA was extracted by using RNeasy Mini Kit (Qiagen) followed by cDNA synthesis using the SuperScript IV VILO Master Mix (Thermo Scientific), both performed according to the manufacturer's protocol. q-PCR was performed using the following primers: […]
For the q-PCR reaction, Power SYBR Green master mix (Thermo Scientific) was used according to the manufacturer's instructions. Briefly, each reaction consisted of 10 ng cDNA, 5 μL Power SYBR Green master mix, 200 nM primers (forward and reverse), and RNase-free water up to 10 μL. q-PCR was performed on the ViiA 7 Real-Time PCR System (Thermo Scientific) with the following cycle parameter: 95° C. for 10 min, 40 cycles of 95° C. for 15 s, and 60° C. for 1 min. q-PCR products were analyzed by melting curves for unspecific products or primer dimer formation. Rpl39 was used as housekeeping gene and 2^−ΔΔCT method was applied to determine the relative mRNAs expression.

U2OS cells [8] = experiment: Mitochondrial fusion in U2OS cells
MEFs [9] = experiment: Mitochondrial respiration in cellulo (OCR, Seahorse XF24); assay type: cell-based, mouse; details: WT MEFs; MASM7 1 μM or MFI8 20 μM, 6 hrs
Procedure: Mitochondrial respiration in cellulo. Mitochondrial oxygen consumption rates (OCR) were assessed using a XF24 Analyzer (Seahorse Biosciences, Billerica MA, USA). In brief, 3×10^4 MEFs were cultured in a XF24 cell culture microplate containing DMEM supplemented with 10% fetal bovine serum. […] OCR was normalized to cell number or total protein content per well for each condition tested.

## Cc1cccc(NC(C)c2cc(Cl)ccc2O)c1C (stereo not drawn) [MFI8, 4-Chloro-2-(1-((2,3-dimethylphenyl)amino)ethyl)phenol]
BXPC3 cells
  viability: concentration responsively reduces viability
U2OS cells [1]
  cell death in combination with BV6: synergistically induce cell death
MEFs [2]; MEFs
  expression of genes involved in DNA damage response: up-regulated several genes that are involved in DNA damage response
MEFs [2]; RNA-seq
  gene expression of subunits of the respiratory complexes: reduced the gene expression of several nuclear-encoded subunits of the respiratory complexes
[3]
  gene expression levels of mitochondrial biogenesis markers: no alteration
Calu-6 cells [4]
  viability: concentration responsively reduces viability
H2405 cells
  viability: concentration responsively reduces viability
MEFs [5]; MFN1/MFN2 DKO MEFs reconstituted with L692A MFN2
  mitochondrial membrane potential (TMRE): not when reconstituted with L692A MFN2
MEFs [5]; MFN1/MFN2 DKO MEFs reconstituted with WT MFN2
  mitochondrial membrane potential (TMRE): significantly decreased mitochondrial membrane potential
MEFs [5]; WT MEFs, 6 hrs
  mitochondrial membrane potential (TMRE): concentration responsively decreased mitochondrial membrane potential
Calu-6 cells [6]
  apoptosis / cell death (Annexin V): induces apoptosis in Calu-6 cells
U2OS cells [7]
  caspase-3/7 activation: induced caspase-3/7 activation
MFN1 and MFN2
  MFN1 and MFN2 gene expression and corresponding protein levels: neither MASM7 nor MFI8 altered
U2OS cells [8]
  mitochondrial fusion: inhibited mitochondrial fusion
MEFs [9]
  respiration and mitochondrial ATP production (OCR): reduced respiration and mitochondrial ATP production
